Laboratory results taken from the supplement of paper PMC11451515.

Key:
Conditions in all cases: 48 h
[1] = system: SEM cells; assay: cell viability relative to DMSO control; higher = less cytotoxic
Outline: (§1)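 Before seeding, each leukemia line was adapted for at least four passages in each medium. NOMO1 or SEM cells (500 cells/well) and P12-Ichikawa cells (1000 cells/well) went into 1536-well plates at 5 μl, then received library compounds in DMSO by pin dosing across 11 threefold concentrations, 47 μM to 0.79 nM. Readout was CellTiter-Glo One luminescence after 48 h at 37°C, and viability is given as a per-plate percentage of DMSO wells, with cell-free wells as background.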

[2] = system: NOMO1; assay: as above
Outline: as §1

[3] = system: P12-Ichikawa; assay: as above
Outline: as §1

[4] = system: SEM cells; assay: AUC of viability dose-response curve (% viability x log10 dose units); higher = less sensitive
Outline: (§2)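 Seeding of medium-adapted leukemia cells was at 500 or 1000 cells/well in 1536-well plates, followed by 48 h at 37°C with library compounds in DMSO at 11 threefold doses from 47 μM to 0.79 nM. CellTiter-Glo One luminescence was normalised per plate to DMSO and cell-free wells and fitted as a four-parameter log-logistic function of log10 dose. Area under the curve was integrated by trapezoidal rule, with curves exceeding full viability scaled and curves failing quality control removed.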

[5] = system: NOMO1; assay: as above
Outline: as §2

[6] = system: P12-Ichikawa; assay: as above
Outline: as §2

O=C(O)c1cccnc1Nc1cccc(C(F)(F)F)c1
cell viability [%]
Conditions | [1] | [2] | [3]
HPLM + 10% dialyzed FBS, 0.000781 µM | 92.1 | 112 | 112
HPLM + 10% dialyzed FBS, 0.00234 µM | 105 | 124 | 111
HPLM + 10% dialyzed FBS, 0.00702 µM | 99.1 | 129 | 111
HPLM + 10% dialyzed FBS, 0.0211 µM | 103 | 104 | 118
HPLM + 10% dialyzed FBS, 0.0632 µM | 119 | 122 | 119
HPLM + 10% dialyzed FBS, 0.19 µM | 117 | 131 | 128
HPLM + 10% dialyzed FBS, 0.569 µM | 40.9 | 150 | 112
HPLM + 10% dialyzed FBS, 1.71 µM | 65.2 | 142 | 131
HPLM + 10% dialyzed FBS, 5.12 µM | 117 | 132 | 129
HPLM + 10% dialyzed FBS, 15.4 µM | 120 | 129 | 129
HPLM + 10% dialyzed FBS, 46.1 µM | 111 | 135 | 124
RPMI 5 mM glucose + 10% FBS, 0.000781 µM | 102 | 105 | 115
RPMI 5 mM glucose + 10% FBS, 0.00234 µM | 97.1 | 116 | 117
RPMI 5 mM glucose + 10% FBS, 0.00702 µM | 90.9 | 108 | 113
RPMI 5 mM glucose + 10% FBS, 0.0211 µM | 106 | 116 | 120
RPMI 5 mM glucose + 10% FBS, 0.0632 µM | 108 | 110 | 124
RPMI 5 mM glucose + 10% FBS, 0.19 µM | 111 | 128 | 143
RPMI 5 mM glucose + 10% FBS, 0.569 µM | 65.9 | 124 | 129
RPMI 5 mM glucose + 10% FBS, 1.71 µM | 55.2 | 122 | 132
RPMI 5 mM glucose + 10% FBS, 5.12 µM | 98.5 | 125 | 141
RPMI 5 mM glucose + 10% FBS, 15.4 µM | 80.6 | 132 | 138
RPMI 5 mM glucose + 10% FBS, 46.1 µM | 75.6 | 120 | 108
RPMI 5 mM glucose + 10% dialyzed FBS, 0.000781 µM | 105 | 97.1 | 104
RPMI 5 mM glucose + 10% dialyzed FBS, 0.00234 µM | 133 | 101 | 108
RPMI 5 mM glucose + 10% dialyzed FBS, 0.00702 µM | 110 | 101 | 115
RPMI 5 mM glucose + 10% dialyzed FBS, 0.0211 µM | 106 | 114 | 112
RPMI 5 mM glucose + 10% dialyzed FBS, 0.0632 µM | 119 | 114 | 112
RPMI 5 mM glucose + 10% dialyzed FBS, 0.19 µM | 125 | 117 | 119
RPMI 5 mM glucose + 10% dialyzed FBS, 0.569 µM | 59.5 | 120 | 115
RPMI 5 mM glucose + 10% dialyzed FBS, 1.71 µM | 54.7 | 111 | 113
RPMI 5 mM glucose + 10% dialyzed FBS, 5.12 µM | 121 | 115 | 121
RPMI 5 mM glucose + 10% dialyzed FBS, 15.4 µM | 108 | 120 | 131
RPMI 5 mM glucose + 10% dialyzed FBS, 46.1 µM | 107 | 106 | 117

AUC of viability dose-response curve
Conditions | [4] | [5] | [6]
HPLM + 10% dialyzed FBS | 466 | 446 | 451
RPMI 5 mM glucose + 10% FBS | 420 | 452 | 451
RPMI 5 mM glucose + 10% dialyzed FBS | 436 | 461 | 444

COc1ccc(C(=O)CC2(O)C(=O)Nc3c(Cl)ccc(Cl)c32)cc1 (stereo unspecified)
cell viability [%]
Conditions | [1] | [2] | [3]
HPLM + 10% dialyzed FBS, 0.000781 µM | 87 | 111 | 102
HPLM + 10% dialyzed FBS, 0.00234 µM | 108 | 115 | 114
HPLM + 10% dialyzed FBS, 0.00702 µM | 111 | 128 | 114
HPLM + 10% dialyzed FBS, 0.0211 µM | 110 | 119 | 114
HPLM + 10% dialyzed FBS, 0.0632 µM | 104 | 106 | 117
HPLM + 10% dialyzed FBS, 0.19 µM | 109 | 119 | 124
HPLM + 10% dialyzed FBS, 0.569 µM | 113 | 120 | 120
HPLM + 10% dialyzed FBS, 1.71 µM | 107 | 121 | 106
HPLM + 10% dialyzed FBS, 5.12 µM | 45.9 | 77.3 | 55
HPLM + 10% dialyzed FBS, 15.4 µM | 20.5 | 34.5 | 19.6
HPLM + 10% dialyzed FBS, 46.1 µM | 16.2 | 26.7 | 14.5
RPMI 5 mM glucose + 10% FBS, 0.000781 µM | 75.7 | 95.6 | 107
RPMI 5 mM glucose + 10% FBS, 0.00234 µM | 98.4 | 108 | 104
RPMI 5 mM glucose + 10% FBS, 0.00702 µM | 99.7 | 119 | 117
RPMI 5 mM glucose + 10% FBS, 0.0211 µM | 79.3 | 111 | 109
RPMI 5 mM glucose + 10% FBS, 0.0632 µM | 94.1 | 109 | 116
RPMI 5 mM glucose + 10% FBS, 0.19 µM | 85.1 | 113 | 125
RPMI 5 mM glucose + 10% FBS, 0.569 µM | 81.2 | 109 | 118
RPMI 5 mM glucose + 10% FBS, 1.71 µM | 65.7 | 123 | 106
RPMI 5 mM glucose + 10% FBS, 5.12 µM | 41.4 | 101 | 55.8
RPMI 5 mM glucose + 10% FBS, 15.4 µM | 10.7 | 25.6 | 14.1
RPMI 5 mM glucose + 10% FBS, 46.1 µM | 9.15 | 18.6 | 12.9
RPMI 5 mM glucose + 10% dialyzed FBS, 0.000781 µM | 94.8 | 89.5 | 98.9
RPMI 5 mM glucose + 10% dialyzed FBS, 0.00234 µM | 101 | 111 | 116
RPMI 5 mM glucose + 10% dialyzed FBS, 0.00702 µM | 107 | 110 | 126
RPMI 5 mM glucose + 10% dialyzed FBS, 0.0211 µM | 88.9 | 108 | 115
RPMI 5 mM glucose + 10% dialyzed FBS, 0.0632 µM | 104 | 108 | 120
RPMI 5 mM glucose + 10% dialyzed FBS, 0.19 µM | 107 | 120 | 128
RPMI 5 mM glucose + 10% dialyzed FBS, 0.569 µM | 107 | 117 | 122
RPMI 5 mM glucose + 10% dialyzed FBS, 1.71 µM | 90.3 | 108 | 105
RPMI 5 mM glucose + 10% dialyzed FBS, 5.12 µM | 47.3 | 99.2 | 81.9
RPMI 5 mM glucose + 10% dialyzed FBS, 15.4 µM | 20.4 | 26.6 | 25.4
RPMI 5 mM glucose + 10% dialyzed FBS, 46.1 µM | 14.9 | 22.4 | 27.5

AUC of viability dose-response curve
Conditions | [4] | [5] | [6]
HPLM + 10% dialyzed FBS | 391 | 408 | 388
RPMI 5 mM glucose + 10% FBS | 330 | 416 | 387
RPMI 5 mM glucose + 10% dialyzed FBS | 388 | 418 | 406
